Results: patent US11000033B2, “Ketone or oxime compound, and herbicide” (NISSAN CHEMICAL CORPORATION, priority 2014, dated 2021)

What was measured:
Assay type in all cases: in vivo
[1] = test system: Echinochloa oryzacola Vasing.; assay: Test Example 1: herbicidal activity, application before weed generation in submerged conditions (symbol A); conditions: application herbicide amount 320 g/ha
Procedure, shortened: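 Ratings (5: ≥90%, near complete withering; 4: 70–<90%; 3: 40–<70%; 2: 20–<40%; 1: 5–<20%; 0: ≤5%) were assigned 3 weeks after the diluted emulsion was applied to the water surface of freshly sown, submerged pots.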

transplanted rice plant = assay: Test Example 1: effect on crop, application before weed generation in submerged conditions (symbol a); conditions: application herbicide amount 320 g/ha
Procedure, shortened: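 Alluvial soil pots flooded to 4 cm water, sown with Echinochloa oryzacola, Scirpus juncoides and Monochoria vaginalis, then transplanted with 2.5 leaf stage rice seedlings; pre-emergence application. Greenhouse 25° C. to 30° C.; scored 0–5 by herbicidal ratio 3 weeks after application.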

[2] = test system: Echinochloa crus-galli var. crus-galli; assay: Test Example 3: herbicidal effect by foliage application, Wagner pot (symbol H); conditions: application herbicide amount 320 g/ha
Procedure, shortened: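 Rating at 3 weeks post-spray, by defined criteria. Treatment: emulsion diluted with water to a predetermined amount, applied evenly to foliage of 14-day-old plants raised in alluvial soil flooded 0.1–0.5 cm deep at 25–30 °C, rice co-sown.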

Setaria viridis [3] = assay: Test Example 4: herbicidal effect by soil treatment (symbol G); conditions: application herbicide amount 320 g/ha
Procedure, shortened: (§1)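 Seeds were sown in sterilized diluvial soil, covered with about 1.5 cm of soil, and the soil surface was sprayed with a water-diluted emulsion of the compound at a predetermined rate. Plants grew in a greenhouse at 25° C. to 30° C.; effects were scored visually 3 weeks after application.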

Lolium multiflorum Lam. = assay: Test Example 4: herbicidal effect by soil treatment (symbol K); conditions: application herbicide amount 320 g/ha
Procedure, shortened: as §1

Amaranthus retroflexus [4] = assay: Test Example 4: herbicidal effect by soil treatment (symbol N); conditions: application herbicide amount 320 g/ha
Procedure, shortened: as §1

wheat [5] = assay: Test Example 4: effect on crop by soil treatment (symbol e); conditions: application herbicide amount 320 g/ha
Procedure, shortened: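 Grown at 25° C. to 30° C. in a greenhouse, the crops came from seed sown spot-wise in sterilized diluvial soil under roughly 1.5 cm of covering soil.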

Setaria viridis [6] = assay: Test Example 5: herbicidal effect by foliage application, plastic box (symbol G); conditions: 320 g/ha, 3 weeks after application
Procedure, shortened: (§2)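 Seeds were sown in sterilized diluvial soil, covered with about 1.5 cm of soil and grown 14 days in a greenhouse at 25° C. to 30° C. An emulsifiable formulation diluted in water to a set rate was sprayed over foliage, and injury was scored 3 weeks later.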

Avena fatua = assay: Test Example 5: herbicidal effect by foliage application, plastic box (symbol I); conditions: 320 g/ha, 3 weeks after application
Procedure, shortened: as §2

Abutilon theophrasti = assay: Test Example 5: herbicidal effect by foliage application, plastic box (symbol M); conditions: 320 g/ha, 3 weeks after application
Procedure, shortened: as §2

Amaranthus retroflexus [7] = assay: Test Example 5: herbicidal effect by foliage application, plastic box (symbol N); conditions: 320 g/ha, 3 weeks after application
Procedure, shortened: as §2

wheat [8] = assay: Test Example 5: effect on crop by foliage application, plastic box (symbol e); conditions: 320 g/ha, 3 weeks after application
Procedure, shortened: (§3)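 Diluvial soil, sterilized and boxed (21 × 13 × 7 cm), received spot-sown seed covered by about 1.5 cm soil; plants were then greenhouse-grown at 25–30° C.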

beet = assay: Test Example 5: effect on crop by foliage application, plastic box (symbol f); conditions: 320 g/ha, 3 weeks after application
Procedure, shortened: as §3

Stellaria media = assay: Test Example 5: herbicidal effect by foliage application, plastic box (symbol P); conditions: 320 g/ha, 3 weeks after application
Procedure, shortened: as §2

Row | SMILES | Herbicidal effect grade, A: Echinochloa oryzacola Vasing. [1] | Effect grade on crop, a: transplanted rice plant (transplanted rice plant) | herbicidal effect on H (Echinochloa crus-galli var. crus-galli), grade 0-5 [2] | G: Setaria viridis, herbicidal effect grade (Setaria viridis [3]) | K: Lolium multiflorum Lam., herbicidal effect grade (Lolium multiflorum Lam.) | N: Amaranthus retroflexus, herbicidal effect grade (Amaranthus retroflexus [4]) | e: wheat, effect on crop grade (wheat [5]) | G: Setaria viridis, herbicidal effect grade (Setaria viridis [6]) | I: Avena fatua, herbicidal effect grade (Avena fatua) | M: Abutilon theophrasti, herbicidal effect grade (Abutilon theophrasti) | N: Amaranthus retroflexus, herbicidal effect grade (Amaranthus retroflexus [7]) | e: wheat, effect on crop grade (wheat [8]) | f: beet, effect on crop grade (beet) | G (Setaria viridis) herbicidal effect grade (Setaria viridis [3]) | K (Lolium multiflorum Lam.) herbicidal effect grade (Lolium multiflorum Lam.) | N (Amaranthus retroflexus) herbicidal effect grade (Amaranthus retroflexus [4]) | e (wheat) effect on crop grade (wheat [5]) | P: Stellaria media, herbicidal effect grade (Stellaria media)
1 | CCC(CCC1CC(O)=C(c2c(C)cc(C)cc2C)C1=O)=NOC (mixture of isomers) [4-001] | 0 (Herbicidal ratio of 5% or lower (almost no effect)) | 0 (Herbicidal ratio of 5% or lower (almost no effect)) | 2 (Herbicidal ratio of 20% or higher and lower than 40%) | 0 (Herbicidal ratio of 5% or lower (almost no effect)) | 5 (Herbicidal ratio of 90% or more (almost completely withered)) | 0 (Herbicidal ratio of 5% or lower (almost no effect)) | 0 (Herbicidal ratio of 5% or lower (almost no effect)) | 1 (Herbicidal ratio of 5% or higher and lower than 20%) | 4 (Herbicidal ratio of 70% or higher and lower than 90%) | 0 (Herbicidal ratio of 5% or lower (almost no effect)) | 0 (Herbicidal ratio of 5% or lower (almost no effect)) | 0 (Herbicidal ratio of 5% or lower (almost no effect)) | 0 (Herbicidal ratio of 5% or lower (almost no effect)) | – | – | – | – | –
2 | CON=C(C)CC1CC(OCCSC)=C(c2c(C)cc(C)cc2C)C1=O (stereo not shown) [1-011] | 0 (Herbicidal ratio of 5% or lower (almost no effect)) | 0 (Herbicidal ratio of 5% or lower (almost no effect)) | 0 (Herbicidal ratio of 5% or lower (almost no effect)) | – | – | – | – | 0 (Herbicidal ratio of 5% or lower (almost no effect)) | 0 (Herbicidal ratio of 5% or lower (almost no effect)) | 0 (Herbicidal ratio of 5% or lower (almost no effect)) | 0 (Herbicidal ratio of 5% or lower (almost no effect)) | 0 (Herbicidal ratio of 5% or lower (almost no effect)) | 0 (Herbicidal ratio of 5% or lower (almost no effect)) | 0 (Herbicidal ratio of 5% or lower (almost no effect)) | 0 (Herbicidal ratio of 5% or lower (almost no effect)) | 0 (Herbicidal ratio of 5% or lower (almost no effect)) | 0 (Herbicidal ratio of 5% or lower (almost no effect)) | –
3 | CON=C(C)CC1CC(OCC(=O)OC)=C(c2c(C)cc(C)cc2C)C1=O (stereo not shown) [1-012] | 0 (Herbicidal ratio of 5% or lower (almost no effect)) | 0 (Herbicidal ratio of 5% or lower (almost no effect)) | 0 (Herbicidal ratio of 5% or lower (almost no effect)) | – | – | – | – | 0 (Herbicidal ratio of 5% or lower (almost no effect)) | 0 (Herbicidal ratio of 5% or lower (almost no effect)) | 0 (Herbicidal ratio of 5% or lower (almost no effect)) | 0 (Herbicidal ratio of 5% or lower (almost no effect)) | 0 (Herbicidal ratio of 5% or lower (almost no effect)) | 0 (Herbicidal ratio of 5% or lower (almost no effect)) | 0 (Herbicidal ratio of 5% or lower (almost no effect)) | 0 (Herbicidal ratio of 5% or lower (almost no effect)) | 0 (Herbicidal ratio of 5% or lower (almost no effect)) | 0 (Herbicidal ratio of 5% or lower (almost no effect)) | –
4 | CCC(=O)CCC1CC(OC)=C(c2c(C)cc(C)cc2C)C1=O (stereo not shown) [5-002] | 0 (Herbicidal ratio of 5% or lower (almost no effect)) | 0 (Herbicidal ratio of 5% or lower (almost no effect)) | 0 (Herbicidal ratio of 5% or lower (almost no effect)) | 0 (Herbicidal ratio of 5% or lower (almost no effect)) | 0 (Herbicidal ratio of 5% or lower (almost no effect)) | 0 (Herbicidal ratio of 5% or lower (almost no effect)) | 0 (Herbicidal ratio of 5% or lower (almost no effect)) | 0 (Herbicidal ratio of 5% or lower (almost no effect)) | 0 (Herbicidal ratio of 5% or lower (almost no effect)) | 0 (Herbicidal ratio of 5% or lower (almost no effect)) | 0 (Herbicidal ratio of 5% or lower (almost no effect)) | 0 (Herbicidal ratio of 5% or lower (almost no effect)) | 0 (Herbicidal ratio of 5% or lower (almost no effect)) | – | – | – | – | –
5 | CCC(=O)CCC1CC(O)=C(c2c(C)cc(C)cc2C)C1=O (stereo not shown) [5-001] | 0 (Herbicidal ratio of 5% or lower (almost no effect)) | 0 (Herbicidal ratio of 5% or lower (almost no effect)) | 2 (Herbicidal ratio of 20% or higher and lower than 40%) | 0 (Herbicidal ratio of 5% or lower (almost no effect)) | 5 (Herbicidal ratio of 90% or more (almost completely withered)) | 0 (Herbicidal ratio of 5% or lower (almost no effect)) | 0 (Herbicidal ratio of 5% or lower (almost no effect)) | 3 (Herbicidal ratio of 40% or higher and lower than 70%) | 4 (Herbicidal ratio of 70% or higher and lower than 90%) | 0 (Herbicidal ratio of 5% or lower (almost no effect)) | 0 (Herbicidal ratio of 5% or lower (almost no effect)) | 0 (Herbicidal ratio of 5% or lower (almost no effect)) | – | – | – | – | – | 0 (Herbicidal ratio of 5% or lower (almost no effect))
6 | CON=C(C)CC1CC(OC(=O)OC)=C(c2c(C)cc(C)cc2C)C1=O (stereo not shown) [1-014] | 5 (Herbicidal ratio of 90% or more (almost completely withered)) | 5 (Herbicidal ratio of 90% or more (almost completely withered)) | 5 (Herbicidal ratio of 90% or more (almost completely withered)) | – | – | – | – | 5 (Herbicidal ratio of 90% or more (almost completely withered)) | 5 (Herbicidal ratio of 90% or more (almost completely withered)) | 5 (Herbicidal ratio of 90% or more (almost completely withered)) | 5 (Herbicidal ratio of 90% or more (almost completely withered)) | 5 (Herbicidal ratio of 90% or more (almost completely withered)) | 3 (Herbicidal ratio of 40% or higher and lower than 70%) | 3 (Herbicidal ratio of 40% or higher and lower than 70%) | 5 (Herbicidal ratio of 90% or more (almost completely withered)) | – | – | –
